Data from ChEMBL document CHEMBL5104114, “Synthesis and medicinal chemistry of tetronamides: Promising agrochemicals and antitumoral compounds” (Bioorg Med Chem, 2022).
≈ marks a conversion by molar mass, not a printed value.

Tests used:
[1] = tested on: P388; assay: Cytotoxicity against mouse P388 cells measured after 48 hrs by MTT assay; assay type: functional, cell-based; details: P388, 48 h
[2] = tested on: Porphyromonas gingivalis; assay: Antibacterial activity against Porphyromonas gingivalis ATCC 33277 by REMA; assay type: functional
[3] = tested on: Mycobacterium tuberculosis; assay: Antibacterial activity against Mycobacterium tuberculosis ATCC 27294 by REMA; assay type: functional
[4] = tested on: A549; assay: Antiproliferative activity against human A549 cells assessed as inhibition of cell growth at 100 uM by MTT assay relative to control; assay type: functional
[5] = Inhibition of mitochondrial complex III (unknown origin); design: species or system Homo sapiens
[6] = tested on: Synechococcus elongatus; assay: Antibacterial activity against Synechococcus elongatus PCC 6301 by plate reader method; assay type: functional, organism-based
[7] = tested on: Escherichia coli; assay: Antibacterial activity against Escherichia coli ATCC 25922; assay type: functional
[8] = tested on: Klebsiella pneumoniae; assay: Antibacterial activity against Klebsiella pneumoniae patient isolate; assay type: functional
[9] = tested on: Pseudomonas aeruginosa; assay: Antibacterial activity against Pseudomonas aeruginosa; assay type: functional
[10] = Toxicity in Myzus persicae assessed as mortality relative to control
[11] = Reversal of heartbeat inhibition in embryonic chicken cardiac cells; assay type: functional, cell-based, Gallus gallus; details: cardiac muscle cell
[12] = Inhibition of serotonin induced dermal vascular permeability in Sprague-Dawley rat blood vessels at 100 mg/kg, ip measured after 5 mins relative to control; assay type: functional; details: Blood vessel
[13] = Inhibition of bradykinin induced dermal vascular permeability in Sprague-Dawley rat blood vessels at 100 mg/kg, ip measured after 5 mins relative to control; assay type: functional; details: Blood vessel
[14] = Inhibition of histamine induced dermal vascular permeability in Sprague-Dawley rat blood vessels at 100 mg/kg, ip measured after 5 mins relative to control; assay type: functional; details: Blood vessel
[15] = tested on: DU-145; assay: Antiproliferative activity against human DU-145 cells measured after 48 hrs by MTT assay; assay type: cell-based; details: DU-145, 48 h
[16] = Cytotoxicity against human L02 cells measured after 24 hrs by MTT assay; assay type: toxicity, cell-based
[17] = tested on: HCT-116; assay: Antiproliferative activity against human HCT-116 cells measured after 48 hrs by MTT assay; assay type: cell-based; details: HCT-116, 48 h
[18] = tested on: MCF7; assay: Antiproliferative activity against human MCF7 cells measured after 48 hrs by MTT assay; assay type: cell-based; details: MCF7, 48 h
[19] = tested on: SMMC-7721; assay: Antiproliferative activity against human […] cells measured after 24 hrs by MTT assay; assay type: functional, cell-based; details: SMMC-7721, 24 h
[20] = Toxicity in Nilaparvata lugens assessed as mortality at 20 mg/L relative to control; details: at 20 µg/mL
[21] = Toxicity in Aphis craccivora assessed as mortality at 20 mg/L relative to control; details: at 20 µg/mL
[22] = tested on: Leishmania amazonensis; assay: Antileishmanial activity against Leishmania amazonensis incubated for 24 hrs; assay type: functional, organism-based
[23] = Toxicity in Myzus persicae assessed as mortality at 0.80 mg/L relative to control; details: at 0.8 µg/mL, dose 0.8 mg/L
[24] = Inhibition of DNA in mouse L1210 cells; assay type: cell-based
[25] = Toxicity in mouse engrafted with mouse L1210 cells assessed as lethal dose measured per […]; assay type: cell-based
[26] = tested on: Vibrio anguillarum; assay: Antibacterial activity against Vibrio anguillarum NCMB6; assay type: functional
[27] = Inhibition of RNA in mouse L1210 cells; assay type: cell-based
[28] = tested on: Botrytis cinerea; assay: […] activity against Botrytis cinerea; assay type: functional
[29] = tested on: Streptomyces sp.; assay: Antibacterial activity against Streptomyces sp. ATCC 23836; assay type: functional
[30] = tested on: Brevibacillus brevis; assay: Antibacterial activity against Bacillus brevis; assay type: functional
[31] = tested on: Aeromonas salmonicida; assay: Antimicrobial activity against Aeromonas salmonicida ATCC 14174; assay type: functional
[32] = Toxicity in Spodoptera littoralis larvae; design: species or system Larva
[33] = biological target: ATP-sensitive inward rectifier potassium channel 1 (Homo sapiens, UniProt P48048); assay: Inhibition of ROMK (unknown origin) by Thallium Efflux assay
[34] = tested on: Escherichia coli; assay: Antibacterial activity against Escherichia coli; assay type: functional
[35] = tested on: Staphylococcus aureus; assay: Antibacterial activity against Staphylococcus aureus; assay type: functional
[36] = Toxicity in Anopheles darlingi larvae measured after 48 hrs; design: species or system Larva
[37] = Toxicity in Nilaparvata lugens assessed as mortality at 100 mg/ml relative to control; design: dose or concentration left out as unconfirmed
[38] = Toxicity in Aphis craccivora assessed as mortality at 100 mg/ml relative to control; design: dose or concentration left out as unconfirmed
[39] = Toxicity in Aphis gossypii assessed as mortality at 4 mg/L relative to control; details: at 4 µg/mL
[40] = Toxicity in Myzus persicae assessed as mortality at 20 mg/L relative to control; details: at 20 µg/mL

Chain of ATP-sensitive inward rectifier potassium channel 1 (P48048 whole entry): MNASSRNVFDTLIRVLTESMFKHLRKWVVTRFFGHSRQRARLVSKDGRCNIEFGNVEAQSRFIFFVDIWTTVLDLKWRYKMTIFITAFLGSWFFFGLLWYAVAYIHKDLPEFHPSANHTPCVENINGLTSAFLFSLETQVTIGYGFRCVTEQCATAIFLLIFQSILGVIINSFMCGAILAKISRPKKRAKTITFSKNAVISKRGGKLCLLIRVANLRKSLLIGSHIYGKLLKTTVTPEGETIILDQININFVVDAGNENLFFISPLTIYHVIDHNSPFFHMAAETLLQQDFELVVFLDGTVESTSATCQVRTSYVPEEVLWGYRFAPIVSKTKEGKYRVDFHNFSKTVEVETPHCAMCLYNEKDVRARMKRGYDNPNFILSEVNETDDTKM

Compound: COc1cc(C2C3=C(COC3=O)Nc3cc4c(cc32)OCO4)cc(OC)c1OC (stereo unspecified)
- IC50 [1]: 4.53 µM

Compound: COc1cc(C2C3=C(COC3=O)Nc3cc4c(cc32)OCO4)c([N+](=O)[O-])cc1OC (stereo unspecified)
- MIC50 [2]: 25 µg/mL (≈ 60.6 µM)
- MIC50 [3]: 250 µg/mL (≈ 606 µM)

Compound: CCOC(=O)[C@H](Cc1ccccc1)NC1=C(Cl)C(=O)O[C@@H]1O[C@@H]1C[C@H](C)CC[C@H]1C(C)C
- inhibition at 100 µM [4]: 91.8%

Compound: CCCCCC[C@H](O)CCC[C@H](O)[C@H]1CC[C@H]([C@H]2CC[C@H]([C@H](O)CCCCCCCCCCCCC3=C(N)[C@H](C)OC3=O)O2)O1
- IC50 [5]: 40 nM

Compound: O=C1O[C@@H]([C@H](O)c2ccc(-c3ccccc3)cc2)C(Nc2ccc(Br)cc2)=C1Cl
- IC50 [6]: 1300 nM

Compound: COC1OC(=O)C(Br)=C1n1cnc2cc(C)c(C)cc21 (stereo unspecified)
- MIC50 [7]: 2 µg/mL (≈ 5.93 µM)
- MIC50 [8]: 16 µg/mL (≈ 47.5 µM)
- MIC50 [9]: 8 µg/mL (≈ 23.7 µM)

Compound: N#CC1(c2cncc(Cl)c2)CC2CCC(C1)N2CC(F)F (stereo unspecified)
- Activity [10]: > 80%

Compound: CCOC(=O)C1C(C)NC2=C(C(=O)OC2)C1c1ccccc1OC(F)F (stereo unspecified)
- EC50 [11]: 60 nM

Compound: CCN(CC)C1=C(Cl)C(=O)OC1OC (stereo unspecified)
- inhibition at 100 µM [4]: 80.5%

Compound: Cc1ccc(NC2=C(Cl)C(=O)O[C@H]2[C@H](O)c2ccc(-c3ccccc3)cc2)cc1
- IC50 [6]: 4400 nM

Compound: CC[C@H](C)[C@H](NC1=C(Br)C(=O)O[C@@H]1O[C@@H]1C[C@H](C)CC[C@H]1C(C)C)C(=O)OC
- inhibition at 100 µM [4]: 97.2%

Compound: O=C(N[C@H]1C[C@@H]1c1ccccc1)C1=C(Nc2ccc(Cl)cc2)COC1=O
- inhibition in vivo at 100 mg/kg [12]: 94%
- inhibition in vivo at 100 mg/kg [13]: 100%
- inhibition in vivo at 100 mg/kg [14]: 92%

Compound: COC1OC(=O)C(Cl)=C1N1CCN(CCCCCC[C@H]2CN([C@@H]3OC4O[C@]5(C)CC[C@H]6[C@H](C)CC[C@@H]([C@H]3C)[C@@]46OO5)CCS2(=O)=O)CC1 (stereo partly specified)
- IC50 [15]: 20 nM
- IC50 at 24 h [16]: 70 µM
- IC50 [17]: 10 nM
- IC50 [18]: 10 nM
- IC50 [19]: 30 nM

Compound: CN(Cc1ccc(Cl)nc1)C1=C(Br)C(=O)OC1OCCF (stereo unspecified)
- Activity [20]: 92%
- Activity [21]: 100%

Compound: COc1cc2c(c(OC)c1OC)C(c1ccc(C(F)(F)F)cc1)C1=C(COC1=O)N2 (stereo unspecified)
- IC50 [22]: 6.22 µM

Compound: NCCN(Cc1ccc(Cl)nc1)C1=CC(=O)OC1
- Activity [23]: 100%

Compound: NC1=CC(=O)O/C1=C/C=O
- IC50 [24]: 0.4 µg/mL (≈ 2.88 µM)
- LC50 [25]: 6.25 mg
- MIC50 [26]: 100 µg/mL (≈ 719 µM)
- IC50 [27]: 0.6 µg/mL (≈ 4.31 µM)
- MIC50 [28]: 100 µg/mL (≈ 719 µM)
- MIC50 [29]: 100 µg/mL (≈ 719 µM)
- MIC50 [30]: 50 µg/mL (≈ 359 µM)
- MIC50 [31]: 100 µg/mL (≈ 719 µM)

Compound: CCCC[C@@]12[C@@H]3C[C@H]4[C@H]5[C@H](C)/C(=C6/OC(=O)C(C)=C6OC)O[C@]5(O3)[C@@H]1CCN42
- LC50 [32]: 2 mg/L (≈ 5.16 µM)

Compound: Cc1c([C@H](O)CN2CCC3(CC2)CCN(C2=C(F)C(=O)OC2)CC3)ccc2c1COC2=O
- IC50 [33]: 7 nM

Compound: O=C1OC2C(=C1Cl)N2Cc1ccccc1 (stereo unspecified)
- MIC50 [34]: 8 µg/mL (≈ 36.1 µM)
- MIC50 [35]: 4 µg/mL (≈ 18 µM)
- MIC50 [9]: 16 µg/mL (≈ 72.2 µM)

Compound: O=C1C=C(N(Cc2ccc(Cl)nc2)CC(F)F)CO1
- LC50 [36]: 1.18 µg/mL (≈ 4.09 µM)
- Activity [37]: 100%
- Activity [38]: 90%
- Activity [39]: 98%
- Activity [23]: 100%

Compound: O=C1C=C(N(CCF)Cc2cnc(Cl)c(Cl)c2)CO1
- Activity [40]: 100%

Compound: COc1cc([C@@H]2c3cc4c(cc3[C@H](O)[C@H]3COC(=O)[C@H]23)OCO4)cc(OC)c1OC [PODOFILOX]
- IC50 [1]: 10.4 µM
